Measured values: paper PMC4425616 (Nature medicine, 2015)
Like-named read-outs stand apart in the source and are kept apart here. Values belong to the compound of their own block, whether it stands above or below them.

Key:
Pin1 [1] = target: T1, Pin1 (Homo sapiens, UniProt Q13526); type: binding; details: incubation 0.5 hour
cyclophilin = assay: Chymotrypsin coupled PPIase activity assay; type: biochemical
FKBP12 = FKBP12 (Homo sapiens, UniProt P62942); assay: Chymotrypsin coupled PPIase activity assay; type: biochemical
Chain of FKBP12 (P62942 whole entry, species assumed): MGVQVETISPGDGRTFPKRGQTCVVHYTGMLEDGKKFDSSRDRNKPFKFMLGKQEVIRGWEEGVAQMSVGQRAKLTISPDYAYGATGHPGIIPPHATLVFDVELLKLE

Pin1 [2] = target: Pin1 (Mus musculus, UniProt Q9QUR7); assay: Pin1 protein, mRNA and half-life in MEFs; type: cell-based; details: for Pin1 protein half-life: 50 μM, 24 h, cycloheximide chase
Chain of Pin1 (Mus musculus, UniProt Q9QUR7) (Q9QUR7 whole entry): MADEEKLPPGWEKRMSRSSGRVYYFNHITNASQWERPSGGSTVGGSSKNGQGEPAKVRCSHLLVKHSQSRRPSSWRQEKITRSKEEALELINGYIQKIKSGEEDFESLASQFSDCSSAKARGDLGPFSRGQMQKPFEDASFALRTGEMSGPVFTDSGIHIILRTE

breast cancer cells = assay: Growth and Pin1 degradation in breast cancer cells, combinations with ATRA; type: cell-based, human
PML-RARα [3] = assay: Immunoblotting for PML-RARα in NB4 cells; type: cell-based, human; details: 72 h
Pin1 [4] = target: T1, Pin1; assay: Immunoblotting for Pin1 in NB4 cells; type: cell-based; details: 72 h
human APL NB4 cells = assay: APL cell differentiation; type: cell-based; details: 72 h
[5] = test system: APL cells isolated from hCG-PML-RARα transgenic mice; details: 3 weeks treatment
Pin1 [6] = target: T1, Pin1; assay: Binding of
[7] = target: FKBP12 (FK506-binding protein 12) (Homo sapiens, UniProt P62942); assay: Binding of fluorescently-labeled pTide to FKBP12
Chain of FKBP12 (FK506-binding protein 12) (P62942 whole entry, species assumed): as the sequence (P62942 whole entry, species assumed) above

Pin1 [8] = target: T1, Pin1; details: cited from earlier work
Pin1 [9] = target: T1, Pin1; assay: Photoaffinity labeling of Pin1 with [3H]ATRA; type: binding; details: SDS gels
Pin1 WT MEFs = assay: MTT cell growth assay; type: cell-based, mouse; details: 72 h
Pin1 KO MEFs = assay: MTT cell growth assay; type: cell-based, mouse; details: 72 h, compared with WT MEFs
NIH 3T3 cells = assay: Centrosome amplification induced by Pin1 overexpression; type: cell-based; details: 72 h
cyclin D1 promoter = assay: Cyclin D1 promoter-driven luciferase reporter assay; type: cell-based; details: SKBR3 cells, 72 h
SKBR3 cells = assay: Foci formation assay; type: cell-based; details: 48 h
Pin1 [10] = target: T1, Pin1; assay: Immunostaining of bone marrow of APL patients treated with ATRA; type: in vivo
PML-RARα [11] = assay: as above; type: in vivo, human
MCF10A cells = assay: Colorimetric MTT assay; type: cell-based, human; details: 72 h
HMLE cells = assay: Colorimetric MTT assay; type: cell-based, human; details: 72 h
[12] = test system: Pin1 and its substrate oncogenes and tumor suppressors; type: cell-based, human; details: 72 hr
MDA-MB-231 cells = assay: MDA-MB-231 xenograft in nude mice; type: in vivo
MDA-MB-468 cells = assay: MDA-MB-468 xenograft in nude mice; type: in vivo; details: ATRA-releasing pellets
[13] = standard doses in human patients; cited from earlier work
[14] = three ATRA-sensitive cancer cell lines

T1 sequence (Q13526 whole entry): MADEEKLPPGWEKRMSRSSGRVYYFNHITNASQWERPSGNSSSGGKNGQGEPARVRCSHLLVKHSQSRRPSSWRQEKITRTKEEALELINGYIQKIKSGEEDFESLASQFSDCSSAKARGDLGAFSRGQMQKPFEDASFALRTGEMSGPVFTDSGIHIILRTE

Compound: CC1=C(/C=C/C(C)=C/C=C/C(C)=C\C(=O)O)C(C)(C)CCC1 [13cRA, 13-cis-retinoic acid]
- inhibition of cyclophilin PPIase activity (cyclophilin): neither inhibited
- inhibition of FKBP12 PPIase activity (FKBP12): neither inhibited
- Pin1 protein half-life (Pin1 [2]): reduced Pin1 protein half-life

Compound: CCCCCCCOc1cc2c(cc1/C(C)=C/c1ccc(C(=O)O)cc1)C(C)(C)CCS2(=O)=O [Ro-415253]
- Pin1 binding (FP assay) (Pin1 [1]): minimal Pin1 binding
- effect on the ability of ATRA to induce Pin1 degradation or inhibit proliferation (breast cancer cells): neither had obvious effects

Compound: O=C1C=CC(=O)c2c(O)cccc21 [Juglone]
- PML-RARα abundance (PML-RARα [3]): dose-dependently reduced PML-RARα
- Pin1 abundance (Pin1 [4]): inhibited Pin1 without degrading it
- induction of APL cell differentiation (human APL NB4 cells): neither Pin1 inhibitors nor Pin1 shRNA induced human APL cell differentiation
- PML-RARα in the bone marrow [5]: effectively reduced PML-RARα in the bone marrow
- condition of treated mice [5]: rather sick
- spleen weights [5]: spleen weights nearly at basal levels

Compound: CC1=C(/C=C/C(C)=C/C=C/C(C)=C/C(=O)O)C(C)(C)CCC1 [[^3H]-ATRA, all-trans-[11,12-3H]retinoic acid]
- Kd (Pin1 [9]): 800 nM

Compound: CCOC(=O)CN1C(=O)c2ccc3c4c(ccc(c24)C1=O)C(=O)N(CC(=O)OCC)C3=O [PiB]
- PML-RARα abundance (PML-RARα [3]): dose-dependently reduced PML-RARα
- Pin1 abundance (Pin1 [4]): inhibited Pin1 without degrading it
- induction of APL cell differentiation (human APL NB4 cells): neither Pin1 inhibitors nor Pin1 shRNA induced human APL cell differentiation

Compound: O=C(O[C@@H]1Cc2c(O)cc(O)cc2O[C@@H]1c1cc(O)c(O)c(O)c1)c1cc(O)c(O)c(O)c1 [EGCG]
- PML-RARα abundance (PML-RARα [3]): dose-dependently reduced PML-RARα
- Pin1 abundance (Pin1 [4]): inhibited Pin1 without degrading it
- induction of APL cell differentiation (human APL NB4 cells): neither Pin1 inhibitors nor Pin1 shRNA induced human APL cell differentiation
- PML-RARα in the bone marrow [5]: effectively reduced PML-RARα in the bone marrow
- condition of treated mice [5]: rather sick
- spleen weights [5]: spleen weights nearly at basal levels

Compound: CC1=C(/C=C/C(C)=C/C=C/C(C)=C/C(=O)O)C(C)(C)CCC1 [ATRA, all-trans retinoic acid]
- Pin1 binding (FP assay) (Pin1 [1]): most potent
- inhibition of cyclophilin PPIase activity (cyclophilin): neither inhibited
- inhibition of FKBP12 PPIase activity (FKBP12): neither inhibited
- inhibition of growth (Pin1 WT MEFs): Relatively high concentrations of ATRA were required
- inhibition of growth (Pin1 KO MEFs): more resistant to ATRA
- Pin1 protein half-life (Pin1 [2]): reduced Pin1 protein half-life
- Pin1 mRNA levels (Pin1 [2]; 72 h, quantitative RT-PCR): no obvious effects
- Pin1 protein abundance (Pin1 [2]; WT Pin1, 72 h, immunoblotting): dose-dependently down-regulated
- inhibition of Pin1 overexpression-induced centrosome amplification (NIH 3T3 cells): dose-dependently and fully inhibited
- inhibition of Pin1-induced activation of the cyclin D1 promoter (cyclin D1 promoter): dose-dependently and fully inhibited
- inhibition of Pin1-enhanced foci formation (SKBR3 cells): dose-dependently and fully inhibited
- PML-RARα abundance (PML-RARα [3]): dose-dependently reduced PML-RARα
- Pin1 remaining after treatment (Pin1 [10]; 3 days of ATRA treatment): ~ 40%
- Pin1 remaining after treatment (Pin1 [10]; 10 days of ATRA treatment): < 10%
- PML-RARα remaining after treatment (PML-RARα [11]; 3 days of ATRA treatment): ~ 40%
- PML-RARα remaining after treatment (PML-RARα [11]; 10 days of ATRA treatment): < 10%
- cell proliferation, susceptibility to ATRA (MCF10A cells): highly resistant to ATRA
- cell proliferation, susceptibility to ATRA (HMLE cells): highly resistant to ATRA
- effects on Pin1 and substrate proteins ([12]; MCF10A cells): no appreciable effects
- abundance of Pin1 and substrate oncogenes (cyclin D1, HER2, ERα, Akt, NFκB p65, c-Jun, PKM2) [12, 14]: dose-dependent decrease in abundance of Pin1 and its substrate oncogenes
- abundance of Pin1 substrate tumor suppressors (Smad2/3, SMRT) [12, 14]: increase in abundance of Pin1 substrate tumor suppressors
- antitumor activity (MDA-MB-231 cells; 33.0 μmol/kg intraperitoneally 3 times a week for 8 weeks): only modest antitumor activity
- growth of tumors from MDA-MB-231 cells stably expressing Pin1 (MDA-MB-231 cells; ATRA implants for 7 weeks): effectively inhibited by ATRA in a dose-dependent manner
- abundance of Pin1 and cyclin D1 in tumors (MDA-MB-231 cells; ATRA-releasing pellets): reduced abundance of Pin1 and its substrate cyclin D1
- abundance of Pin1 and cyclin D1 in tumors (MDA-MB-468 cells): reduced abundance of Pin1 and its substrate cyclin D1
- drug concentration produced [13]: 1200 nM
- PML-RARα in the bone marrow [5]: effectively reduced PML-RARα in the bone marrow
- Pin1 levels in the bone marrow [5]: reduced Pin1 levels in the bone marrow
- spleen weights [5]: spleen weights nearly at basal levels

Compound: Clc1cccc(C(c2ccc3[nH]cnc3c2)n2ccnc2)c1 (centres unmarked) [liarazole]
- effect in combination with ATRA on cell growth (breast cancer cells): generally additive effects with ATRA

Continued, in another order:

- Pin1 binding (FP assay) (Pin1 [1]): totally inactive
Compound: CC1=C(/C=C/C(C)=C/C=C/C(C)=C/C=O)C(C)(C)CCC1 [retinal]

- Pin1 binding (FP assay) (Pin1 [1]): totally inactive
Compound: CC1=C(/C=C/C(C)=C/C=C/C(C)=C/CO)C(C)(C)CCC1 [retinol]

- Pin1 binding (FP assay) (Pin1 [1]): only marginal Pin1 binding
Compound: CC1=C(/C=C/C(C)=C/C=C/C(C)=C/C(=O)Nc2ccc(O)cc2)C(C)(C)CCC1 [fenretinide]

- binding of fluorescently-labeled pTide to Pin1 (Pin1 [6]): bound to Pin1
- binding of fluorescently-labeled pTide to FKBP12 [7]: not to FKBP12
Compound: Bth-D-phos.Thr-Pip-Nal [pTide]
- Kd (Pin1 [8]): 1.2 nM

- Pin1 binding (FP assay) (Pin1 [1]): totally inactive
Compound: CC(=O)OC/C=C(C)/C=C/C=C(C)/C=C/C1=C(C)CCCC1(C)C [retinyl acetate]

- Pin1 binding (FP assay) (Pin1 [1]): only marginal Pin1 binding
Compound: C=C(c1ccc(C(=O)O)cc1)c1cc2c(cc1C)C(C)(C)CCC2(C)C [bexarotene]
